Laboratory results from patent US11154060B2, “Microbiocidal oxadiazole derivatives” (SYNGENTA PARTICIPATIONS AG, priority 2016, dated 2021).

Tests used:
[1] = system: Puccinia recondita f. sp. tritici; assay: Puccinia recondita f. sp. tritici / wheat / leaf disc preventative (brown rust); assay type: in vivo; conditions: foliar, wheat leaf segments cv. Kanzler, inoculated 1 day after application, assessed 7-9 days after application, read-out: control of Puccinia recondita f. sp. tritici compared to untreated control
Protocol: Leaf disks or leaf segments of various plant species are cut from plants grown in a greenhouse. The cut leaf disks or segments are placed in multiwell plates (24-well format) onto water agar. The leaf disks are sprayed with a test solution before (preventative) or after (curative) inoculation. Compounds to be tested are prepared as DMSO solutions (max. 10 mg/ml) which are diluted to the appropriate concentration with 0.025% Tween20 just before spraying. The inoculated leaf disks or segments are incubated under defined conditions (temperature, relative humidity, light, etc.) according to the respective test system. A single evaluation of disease level is carried out 3 to 14 days after inoculation, depending on the pathosystem. Percent disease control relative to the untreated check leaf disks or segments is then calculated. Wheat leaf segments cv. Kanzler are placed on agar in multiwell plates (24-well format) and sprayed with the formulated test compound diluted in water. The leaf disks are inoculated with a spore suspension of the fungus 1 day after application. The inoculated leaf segments are incubated at 19° C. and 75% rh under a light regime of 12 h light/12 h darkness in a climate cabinet and the activity of a compound is assessed as percent disease control compared to untreated when an appropriate level of disease damage appears in untreated check leaf segments (7-9 days after application).

[2] = system: Glomerella lagenarium (Colletotrichum lagenarium); assay: Glomerella lagenarium (Colletotrichum lagenarium) liquid culture / cucumber / preventative (anthracnose); assay type: cell-based; conditions: Colletotrichum orbiculare, liquid culture in PDB, 24° C., 3-4 days after application, read-out: control of Glomerella lagenarium compared to untreated control (inhibition of growth, photometric)
Protocol: Mycelia fragments or conidia suspensions of a fungus prepared either freshly from liquid cultures of the fungus or from cryogenic storage, are directly mixed into nutrient broth. DMSO solutions of the test compound (max. 10 mg/ml) are diluted with 0.025% Tween20 by a factor of 50 and 10 μl of this solution is pipetted into a microtiter plate (96-well format). The nutrient broth containing the fungal spores/mycelia fragments is then added to give an end concentration of the tested compound. The test plates are incubated in the dark at 24° C. and 96% relative humidity. The inhibition of fungal growth is determined photometrically after 2 to 7 days, depending on the pathosystem, and percent antifungal activity relative to the untreated check is calculated. Conidia of the fungus from cryogenic storage are directly mixed into nutrient broth (PDB potato dextrose broth). After placing a (DMSO) solution of test compound into a microtiter plate (96-well format), the nutrient broth containing the fungal spores is added. The test plates are incubated at 24° C. and the inhibition of growth is measured photometrically 3-4 days after application.

[3] = system: Puccinia recondita f. sp. tritici; assay: Puccinia recondita f. sp. tritici / wheat / leaf disc curative (brown rust); assay type: in vivo; conditions: foliar, wheat leaf segments cv. Kanzler, applied 1 day after inoculation, assessed 6-8 days after application, read-out: control of Puccinia recondita f. sp. tritici compared to untreated control
Protocol: Leaf disks or leaf segments of various plant species are cut from plants grown in a greenhouse. The cut leaf disks or segments are placed in multiwell plates (24-well format) onto water agar. The leaf disks are sprayed with a test solution before (preventative) or after (curative) inoculation. Compounds to be tested are prepared as DMSO solutions (max. 10 mg/ml) which are diluted to the appropriate concentration with 0.025% Tween20 just before spraying. The inoculated leaf disks or segments are incubated under defined conditions (temperature, relative humidity, light, etc.) according to the respective test system. A single evaluation of disease level is carried out 3 to 14 days after inoculation, depending on the pathosystem. Percent disease control relative to the untreated check leaf disks or segments is then calculated. Wheat leaf segments cv. Kanzler are placed on agar in multiwell plates (24-well format). The leaf segments are inoculated with a spore suspension of the fungus. Plates are stored in darkness at 19° C. and 75% rh. The formulated test compound diluted in water is applied 1 day after inoculation. The leaf segments are incubated at 19° C. and 75% rh under a light regime of 12 h light/12 h darkness in a climate cabinet and the activity of a compound is assessed as percent disease control compared to untreated when an appropriate level of disease damage appears in untreated check leaf segments (6-8 days after application).

Phakopsora pachyrhizi = Phakopsora pachyrhizi / soybean / leaf disc preventative (Asian soybean rust); assay type: in vivo; conditions: foliar, soybean leaf disks, inoculated one day after application, assessed 12-14 days after application, read-out: control of Phakopsora pachyrhizi compared to untreated control
Protocol: Leaf disks or leaf segments of various plant species are cut from plants grown in a greenhouse. The cut leaf disks or segments are placed in multiwell plates (24-well format) onto water agar. The leaf disks are sprayed with a test solution before (preventative) or after (curative) inoculation. Compounds to be tested are prepared as DMSO solutions (max. 10 mg/ml) which are diluted to the appropriate concentration with 0.025% Tween20 just before spraying. The inoculated leaf disks or segments are incubated under defined conditions (temperature, relative humidity, light, etc.) according to the respective test system. A single evaluation of disease level is carried out 3 to 14 days after inoculation, depending on the pathosystem. Percent disease control relative to the untreated check leaf disks or segments is then calculated. Soybean leaf disks are placed on water agar in multiwell plates (24-well format) and sprayed with the formulated test compound diluted in water. One day after application leaf discs are inoculated by spraying a spore suspension on the lower leaf surface. After an incubation period in a climate cabinet of 24-36 hours in darkness at 20° C. and 75% rh leaf disc are kept at 20° C. with 12 h light/12 h darkness and 75% rh. The activity of a compound is assessed as percent disease control compared to untreated when an appropriate level of disease damage appears in untreated check leaf disks (12-14 days after application).

Uromyces viciae-fabae = Uromyces viciae-fabae / field bean / leaf disc preventative (faba-bean rust); assay type: in vivo; conditions: foliar, 288 h, 100 ppm in the applied formulation, field bean leaf discs, inoculated two hours after application, 12 days after application, read-out: disease control compared to untreated control leaf discs
Protocol: Leaf disks or leaf segments of various plant species are cut from plants grown in a greenhouse. The cut leaf disks or segments are placed in multiwell plates (24-well format) onto water agar. The leaf disks are sprayed with a test solution before (preventative) or after (curative) inoculation. Compounds to be tested are prepared as DMSO solutions (max. 10 mg/ml) which are diluted to the appropriate concentration with 0.025% Tween20 just before spraying. The inoculated leaf disks or segments are incubated under defined conditions (temperature, relative humidity, light, etc.) according to the respective test system. A single evaluation of disease level is carried out 3 to 14 days after inoculation, depending on the pathosystem. Percent disease control relative to the untreated check leaf disks or segments is then calculated. Field bean leaf discs are placed on water agar in multiwell plates (96-well format) and 10 μl of the formulated test compound diluted in acetone and a spreader pipetted onto the leaf disc. Two hours after application leaf discs are inoculated by spraying a spore suspension on the lower leaf surface. The leaf discs are incubated in a climate cabinet at 22° C. with 18 hour day and 70% relative humidity. The activity of a compound is assessed as percent disease control compared to untreated when an appropriate level of disease damage appears in untreated check leaf disks (12 days after application).

Row | SMILES | pest or weed control at 200 ppm [1] | inhibition at 20 ppm [2] | melting point | pest or weed control at 200 ppm [3] | pest or weed control at 200 ppm (Phakopsora pachyrhizi) | pest or weed control at 100 ppm (Uromyces viciae-fabae)
1 | CCONC(=O)c1ccc(-c2noc(C(F)(F)F)n2)c(F)c1 [Compound 1.13, N-ethoxy-3-fluoro-4-[5-(trifluoromethyl)-1,2,4-oxadiazol-3-yl]benzamide] | ≥ 80% | ≥ 80% | 139 to 144 °C |  |  | 
2 | O=C(NOCC(F)F)c1ccc(-c2noc(C(F)(F)F)n2)c(F)c1 [Compound 1.14, N-(2,2-difluoroethoxy)-3-fluoro-4-[5-(trifluoromethyl)-1,2,4-oxadiazol-3-yl]benzamide] | ≥ 80% | ≥ 80% | 138 to 140 °C | ≥ 80% |  | 
3 | C=CCONC(=O)c1ccc(-c2noc(C(F)(F)F)n2)c(F)c1 [Compound 1.15, N-allyloxy-3-fluoro-4-[5-(trifluoromethyl)-1,2,4-oxadiazol-3-yl]benzamide] | ≥ 80% | ≥ 80% | 132 to 136 °C | ≥ 80% |  | 
4 | O=C(NOCc1ccccc1)c1ccc(-c2noc(C(F)(F)F)n2)c(F)c1 [Compound 1.16, N-benzyloxy-3-fluoro-4-[5-(trifluoromethyl)-1,2,4-oxadiazol-3-yl]benzamide] | ≥ 80% | ≥ 80% | 178 to 181 °C | ≥ 80% | ≥ 80% | 
5 | CONC(=O)Cc1ccc(-c2noc(C(F)(F)F)n2)cc1F [Compound 1.20, 2-[2-fluoro-4-[5-(trifluoromethyl)-1,2,4-oxadiazol-3-yl]phenyl]-N-methoxy-acetamide] | ≥ 80% | ≥ 80% | 150 to 152 °C | ≥ 80% |  | 
6 | CCONC(=O)Cc1ccc(-c2noc(C(F)(F)F)n2)cc1F [Compound 1.21, N-ethoxy-2-[2-fluoro-4-[5-(trifluoromethyl)-1,2,4-oxadiazol-3-yl]phenyl]acetamide] | ≥ 80% | ≥ 80% | 81 to 83 °C | ≥ 80% |  | 
7 | O=C(Cc1ccc(-c2noc(C(F)(F)F)n2)cc1F)NOCC(F)F [Compound 1.23, N-(2,2-difluoroethoxy)-2-[2-fluoro-4-[5-(trifluoromethyl)-1,2,4-oxadiazol-3-yl]phenyl]acetamide] | ≥ 80% | ≥ 80% | 114 to 116 °C | ≥ 80% |  | 
8 | CON(Cc1ccccc1)C(=O)c1ccc(-c2noc(C(F)(F)F)n2)cc1 [Compound 2.5, N-benzyl-N-methoxy-4-[5-(trifluoromethyl)-1,2,4-oxadiazol-3-yl]benzamide] | ≥ 80% | ≥ 80% |  | ≥ 80% | ≥ 80% | ≥ 80%
9 | C#CCN(OC)C(=O)c1ccc(-c2noc(C(F)(F)F)n2)cc1 [Compound 2.6, N-methoxy-N-prop-2-ynyl-4-[5-(trifluoromethyl)-1,2,4-oxadiazol-3-yl]benzamide] | ≥ 80% | ≥ 80% |  | ≥ 80% | ≥ 80% | ≥ 80%
10 | CON(CC=C(Cl)Cl)C(=O)c1ccc(-c2noc(C(F)(F)F)n2)cc1 [Compound 2.7, N-(3,3-dichloroallyl)-N-methoxy-4-[5-(trifluoromethyl)-1,2,4-oxadiazol-3-yl]benzamide] | ≥ 80% | ≥ 80% |  | ≥ 80% | ≥ 80% | ≥ 80%
11 | COC(=O)CN(OC)C(=O)c1ccc(-c2noc(C(F)(F)F)n2)cc1 [Compound 2.8, methyl 2-[methoxy-[4-[5-(trifluoromethyl)-1,2,4-oxadiazol-3-yl]benzoyl]amino]acetate] | ≥ 80% | ≥ 80% |  | ≥ 80% | ≥ 80% | ≥ 80%
12 | C=CCN(OC)C(=O)c1ccc(-c2noc(C(F)(F)F)n2)cc1 [Compound 2.10, N-allyl-N-methoxy-4-[5-(trifluoromethyl)-1,2,4-oxadiazol-3-yl]benzamide] | ≥ 80% | ≥ 80% |  | ≥ 80% | ≥ 80% | ≥ 80%
13 | C=CCONC(=O)Cc1ccc(-c2noc(C(F)(F)F)n2)cc1 [Compound 2.14, N-allyloxy-2-[4-[5-(trifluoromethyl)-1,2,4-oxadiazol-3-yl]phenyl]acetamide] | ≥ 80% | ≥ 80% | 153 to 158 °C |  |  | 
14 | O=C(Cc1ccc(-c2noc(C(F)(F)F)n2)cc1)NOCc1ccccc1 [Compound 2.15, N-benzyloxy-2-[4-[5-(trifluoromethyl)-1,2,4-oxadiazol-3-yl]phenyl]acetamide] | ≥ 80% | ≥ 80% | 135 to 138 °C |  |  | 
15 | O=C(NOCC(F)F)c1ccc(-c2noc(C(F)(F)F)n2)cc1 [Compound 2.18, N-(2,2-difluoroethoxy)-4-[5-(trifluoromethyl)-1,2,4-oxadiazol-3-yl]benzamide] | ≥ 80% | ≥ 80% | 134 to 137 °C | ≥ 80% |  | 
